{"source": "patent US6143719A", "about": "“Bradykinin analogs as selective thrombin inhibitors” (The Regents of the University of Michigan, priority 1996, dated 2000)", "key": {"human platelets": {"system": "human platelets", "assay_type": "cell-based", "procedure": "The cytoplasmic free Ca^2+ concentration ([Ca^2+ ]i) was measured using the fluorescent Ca^2 + indicator fura-2 (Molecular Probes, Inc., Eugene, Oreg.). Gel filtered platelets in Hepes-Tyrode's buffer were loaded with fura-2 by incubation at 37° C. with 1 μM fura-2/acetoxymethyl ester for 45 min according to the method of Rasmussen et al., J. Biol. Chem. 268, 14322 (1993). The labeled platelets were then re-gel filtered to remove any excess probe. Aliquots of the labeled platelet suspension were transferred into a quartz cuvette with a magnetic stirrer, which was then placed in a thermostatically controlled chamber at 37° C. in a fluorescence spectrophotometer (Dual Wave Length Shimazdu SP5000 Spectrofluorometer, Shimazdu USA, Pittsburgh, Pa.). Reagents were directly added to the cuvette. The excitation wave lengths varied between 340 and 380 nm. The fluorescence was measured by recording emitted light at 510 nm as reported by Fisher et al, Mol. Pharm. 35, 195 (1989). The minimum emission was determined on a 20 mM digitonin, 10 mM EGTA solubilized platelet sample; maximum emission was determined on the same sample with 10 mM Ca^2+ added. The intraplatelet free Ca^2+ concentration was calculated by the method of Grykiewicz et al., J. Biol. Chem. 260, 3440 (1985). The ratio of the fluorescence readings was calculated as R=340/380 nm and processed according to the equation [Ca^2+ ]i =KD ((R-Rmin)/Rmax -R))(Sf2 /Sb2) to determine the intraplatelet free Ca^2+ concentration. The KD for fura-2 was assumed to be 224 nM. Rmax and Rmin are the maximum and minimum fluorescence ratios measured at the end of the experiment, respectively; Sf2 and Sb2 are the fluorescence values at 380 nm in the absence and presence of saturating [Ca^2+ ], respectively."}, "platelets": {"system": "platelets", "assay_type": "cell-based, human", "conditions": "for inhibition of aggregation / inhibition of secretion: peptide 1 mM", "procedure": "Fresh whole blood was collected and mixed with 0.013 M sodium citrate and platelet-rich plasma was prepared according to the method of Meloni et al., J. Biol. Chem. 266, 6786, 1991. Washed platelets were prepared by gel filtration over Sepharose 2B columns in Hepes-Tyrode's buffer (0.137 M NaCl, 3 mM KCl, 0.4 mM Na H2 PO4, 12 mM NaHCO3, 1 mM MgCl2, 14.7 mM Hepes containing 20 mM glucose and 0.2% bovine serum albumin, pH 7.35). Platelets for aggregation and secretion studies were incubated according to the method of Schmaier et al., Blood 56, 1013, 1980 with 5-[^14 C]hydroxytryptamine for 30 min at 37° C. The washed platelets (2×10^8 /ml, final concentration radiolabeled with 5-[^14 C]hydroxytryptamine) were added to a cuvette of an aggregometer (Chronolog Corp., Havertown, Pa.), standardized using the protocol of Meloni et al., supra. After the addition of ZnCl2, final concentration 50 μM, purified HK (1 μM) or various concentrations of the peptides (0.1 to 3 mM) or buffer alone was added to the cuvette. Once the baseline stabilized, α-thrombin [0.125 U/ml (1 nM) final concentration] was then added to initiate platelet activation. Stirred platelets were allowed to incubate with o-thrombin and additions for 1 min. In other experiments, platelets were stimulated with TRAP (0.625 to 2.5 μM), ADP (1-5 μM)(Sigma), collagen (1.25 μg/ml) (Horm, Munich, Germany), or U-46619 (1 μM)(Calbiochem Behring, San Diego, Calif.). Additional experiments were performed with washed platelets stimulated with γ-thrombin (1 nM) in the presence of human fibrinogen (100 mg/dl). Both γ-thrombin and human fibrinogen were purchased from Enzyme Research Laboratories, South Bend, Ind. At the conclusion of the incubation, the entire platelet sample was centrifuged at 10,900 xg (Model E, Beckman Instruments, Palo Alto, Calif.) over a 0.135 mM formaldehyde, 5 mM EDTA solution (1 part of formaldehyde-EDTA to 4 parts of platelet suspension) and stored on ice until an aliquot of the supernatant was assayed for 5-[^14 C]hydroxytryptamine secretion. Percent secretion was determined by the ratio of the loss of 5-[^14 C]hydroxytryptamine in the supernatant of the agonist-treated specimen to the loss of 5-[^14 C]hydroxytryptamine in the supernatant of the platelet lysate after the value of the control supernatant (i.e., the level of 5-[^14 C]hydroxytryptamine in a unstimulated sample) was subtracted from both."}, "α-thrombin": {"biological_target": "α-thrombin (Homo sapiens, UniProt P00734)", "experiment": "α-thrombin cleavage of thrombin receptor peptide NAT12 (HPLC)", "assay_type": "biochemical", "conditions": "peptide 1 mM, 8 nM α-thrombin", "procedure": "A further study was performed to determine whether BK analogs prevent α-thrombin from cleaving the thrombin receptor reported by Vu et al., Cell 64, 1057 (1991). A peptide, NAT12 (SEQ ID NO:2), which spans amino acids […] of the α-thrombin cleavage site on the thrombin receptor, was used to determine whether the BK analogs described herein blocked α-thrombin cleavage of the cloned receptor.\nThe cleavage study was performed according to the method of Molino et al., J. Biol. Chem. 270,11168(1995),inwhichNAT12(SEQ ID NO:2) was dissolved in a solution of 0.01 M NaH2 PO4 and 0.15 M NaCl, pH 7.4. […] Following incubation, each mixture was separated by applying the mixture to a Vyadec C-18 HPLC column in 0.1% trifluoroacetic acid and eluting the mixture with a gradient from 0% to 100% of 80% MeCN and 0.1% trifluoroacetic acid. The size of the separated products were confirmed by mass spectrometry."}, "[1]": {"experiment": "observations in rabbits after bolus injection", "assay_type": "in vivo, New Zealand white rabbits", "conditions": "single iv bolus", "procedure": "(§1) Clearance studies have been performed in New Zealand white rabbits with BK analog SEQ ID NO:19. White rabbits weighing between 2.0 and 2.5 kg were premedicated according to the method of Michelson et al., J. Mol. Cell Cardiol. 20, 547 (1988) with 10 mg/kg 1 M xylazine and 10 mg/kg 1 M ketamine. After tracheostomy, intubation, and positive pressure ventilation done with room air (Harvard instruments), stage III surgical anesthesia was maintained with 20 mg/ml of intravenous pentobarbital. A carotid artery and a jugular vein were then exposed. A catheter was inserted into the exposed carotid artery for withdrawal of blood samples and monitoring the animal's blood pressure (Gould, Inc., Cardiovascular Products, Oxnard, Calif.). In a similar manner, a catheter was inserted into the exposed jugular vein for administering the anesthetic and BK analog SEQ ID NO:19.\n(§2) For the clearance study, a single bolus of BK analog SEQ ID NO:19 was injected. The amount of BK analog SEQ ID NO:19 injected was calculated from the weight of the animal such that the blood volume was 1 mM with peptide. For example: for a 2.5 kg rabbit, 7% of its weight gives an estimated blood volume of 175 ml. Accordingly, 89 mg of BK analog was injected to make the 175 ml plasma sample 1 mM. Depending upon the size of the animal, 75 to 90 mg peptide was injected. Blood samples were collected at 2, 4, 6, 8, 10, 20, 30, 40, 60, 90, and 120 minute intervals after infusion into a 0.013 M sodium citrate anticoagulant solution. Plasma was prepared from each of the blood samples collected over time by centrifugation of the blood samples at 10,00 xg for two minutes. Aliquots of the plasmas were assayed for the presence of the BK analog SEQ ID NO:19 antigen by the ELISA technique using a MARKIT-M [1-5] BK assay from Dainippon Pharmaceutical Co., Ltd., Osaka, Japan."}, "[2]": {"experiment": "rabbit clearance study (plasma antigen by ELISA)", "assay_type": "in vivo, New Zealand white rabbits", "procedure": "as §1, §2"}, "washed platelets": {"system": "washed platelets", "experiment": "125I-α-thrombin binding to platelets", "design": "species or system human", "conditions": "peptide 1 mM", "procedure": "Gel filtered platelets were placed into polypropylene tubes and diluted with Hepes-Tyrode's buffer, containing 2 mM CaCl2 and 50 μM ZnCl2 and additions, to a final concentration of 2×10^8 platelets/ml. The reaction was started by the addition of 1 nM ^125 I-α-thrombin, which was prepared by using the iodogen technique as reported by Meloni et al., J. Biol. Chem. 266, 6786 (1991). Incubations were performed at 37° C. for specified times with various additions. After incubation, 50 μl aliquots were removed in triplicate for each experimental point and placed in polypropylene microcentrifuge tubes with an extended tip containing 200 μl of an oil mixture which consisted of 1 part Apiezon A oil to 9 parts of n-butylphthalate (Gustafson et al., J. Clin. Invest. 78, 810 (1986)), and centrifuged at room temperature for 2 min at 10,900× g in a microcentrifuge. (Model E, Beckman Instruments, Palo Alto, Calif.) The supernatant was removed and the tips amputated for placement in the gamma counter. The radioactivity present in the cell pellet was determined with an LKB Rack Gamma Counter (LKB Instruments, Inc., Gaithersburg, Md.). Nonspecific binding was measured in the presence of a 100-fold molar excess of α-thrombin."}, "[3]": {"conditions": "aggregation and secretion not distinguished, read-out: IC50, inhibition of α-thrombin-induced platelet activation"}, "[4]": {"conditions": "washed platelets, α-thrombin 1 nM, read-out: IC50 AGGREGATION (inhibition of α-thrombin-induced platelet aggregation)"}, "[5]": {"conditions": "washed platelets, α-thrombin 1 nM, read-out: IC50 SECRETION (inhibition of α-thrombin-induced platelet secretion)"}}, "note": "Like-named read-outs stand apart in the source and are kept apart here. Ends that are not written are not given here.", "data": [{"compound": "CC[C@H](C)[C@H](NC(=O)[C@H](CCCNC(=N)N)NC(=O)[C@H](CO)NC(=O)[C@H](CO)NC(=O)[C@H](CCCNC(=N)N)NC(=O)[C@H](Cc1ccccc1)NC(=O)[C@@H]1CCCN1C(=O)[C@H](CO)NC(=O)[C@H](Cc1ccccc1)NC(=O)CNC(=O)[C@@H]1CCCN1C(=O)[C@@H]1CCCN1C(=O)[C@H](CCCNC(=N)N)NC(=O)[C@H](CCCCN)NC(=O)[C@@H](N)CCSC)C(=O)NCC(=O)O", "note": "[SEQ ID NO:14]", "values": [{"measurement": "IC50", "setting": "human platelets", "result": 300, "unit": "µM"}]}, {"compound": "Arg-Pro-Pro-Gly (RPPG) [SEQ ID NO:20]", "values": [{"measurement": "inhibition of aggregation", "setting": "platelets", "result": 95, "unit": "%"}, {"measurement": "inhibition of secretion", "setting": "platelets", "result": 25, "unit": "%"}]}, {"compound": "RPPGF [SEQ ID NO:19, Arg-Pro-Pro-Gly-Phe]", "values": [{"measurement": "cleavage product peak 2, share of non-treated NAT12 peak area", "setting": "α-thrombin", "result": 26, "unit": "%"}, {"measurement": "cleavage product peak 3, share of non-treated NAT12 peak area", "setting": "α-thrombin", "result": 31, "unit": "%"}, {"measurement": "reduction of NAT12 peak 1 area after α-thrombin", "setting": "α-thrombin; one hour 37° C.", "result": 57, "unit": "%"}, {"measurement": "bleeding at the surgical sites of cutdowns and intubations", "setting": "[1]", "result": "no abnormal bleeding"}, {"measurement": "blood pressure", "setting": "[1]", "result": "remained stable"}, {"measurement": "platelet count", "setting": "[1]", "result": "remained stable"}, {"measurement": "pulse", "setting": "[1]", "result": "remained stable"}, {"measurement": "unfavorable effects following the bolus injection", "setting": "[1]", "result": "No unfavorable effects were observed"}, {"measurement": "effect of ligating renal arteries on half-life", "setting": "[2]; Rabbit 2, renal arteries ligated", "result": "did not lengthen the half-life"}, {"measurement": "half-life of antigen clearance in plasma", "setting": "[2]; single iv bolus", "result": 6.6, "unit": "min"}, {"measurement": "peak plasma concentration after infusion", "setting": "[2]; single iv bolus, two minutes after infusion", "result": 0.120, "unit": "mM"}, {"measurement": "peak plasma concentration after infusion", "setting": "[2]; single iv bolus, two of three rabbits, ELISA", "result": 60, "unit": "µg/mL"}]}, {"compound": "SEQ ID NO:5: scrambled peptide having the amino acids of SEQ ID NO:19 (FPRPG) [reference compound]", "values": [{"measurement": "inhibition of aggregation", "setting": "platelets", "result": "did not inhibit"}, {"measurement": "inhibition of secretion", "setting": "platelets", "result": "did not inhibit"}]}, {"compound": "SEQ ID NO:6: scrambled peptide having the same amino acid count as SEQ ID NO: 14 (FSGPKRSPIMGRPSFR) [reference compound]", "values": [{"measurement": "inhibition of aggregation", "setting": "platelets", "result": 26, "unit": "%"}, {"measurement": "inhibition of secretion", "setting": "platelets", "result": 8, "unit": "%"}]}, {"compound": "SEQ ID NO:7: BK analog of the mid or carboxy terminal regions of BK (FSPFRSS)", "values": [{"measurement": "IC50", "setting": "platelets; [3]", "result": "≥ 2000", "unit": "µM"}, {"measurement": "IC50", "setting": "platelets; [4]", "result": 2000, "unit": "µM"}, {"measurement": "IC50", "setting": "platelets; [5]", "result": "> 2000", "unit": "µM"}]}, {"compound": "SEQ ID NO:8: BK analog that encompasses all or a portion of the native BK sequence (GFSPFRSSRIG)", "values": [{"measurement": "inhibition of 125I-α-thrombin binding to platelets", "setting": "washed platelets", "result": "did not block"}, {"measurement": "IC50", "setting": "platelets; [4]", "result": 850, "unit": "µM"}, {"measurement": "IC50", "setting": "platelets; [5]", "result": "> 2000", "unit": "µM"}]}, {"compound": "SEQ ID NO:9: scrambled peptide having the amino acids of SEQ ID NO:19 (GPFPR) [reference compound]", "values": [{"measurement": "inhibition of aggregation", "setting": "platelets", "result": "did not inhibit"}, {"measurement": "inhibition of secretion", "setting": "platelets", "result": "did not inhibit"}]}, {"compound": "SEQ ID NO:16: BK analog of the mid or carboxy terminal regions of BK (PPGFSP)", "values": [{"measurement": "IC50", "setting": "platelets; [3]", "result": "≥ 2000", "unit": "µM"}, {"measurement": "IC50", "setting": "platelets; [4]", "result": "> 3000", "unit": "µM"}, {"measurement": "IC50", "setting": "platelets; [5]", "result": "> 2000", "unit": "µM"}]}]}
